Values of other authors as cited in publication PMC4871512, “Drug-Based Lead Discovery: The Novel Ablative Antiretroviral Profile of Deferiprone in HIV-1-Infected Cells and in HIV-Infected Treatment-Naive Subjects of a Double-Blind, Placebo-Controlled, Randomized Exploratory Trial” (PLoS ONE, 2016).

Tests used:
HIV-1 [1] = test system: HIV-1; parameters: method as in PMID 8793010; conditions: culture; cited from earlier work
[2] = test system: HIV-infected cell lines and HIV-infected primary cells; conditions: cited from earlier work
DOHH = test system: DOHH; parameters: method as in PMID 12115536; conditions: clinically relevant concentrations; cited from earlier work
HIV-1 [3] = test system: HIV-1; parameters: method as in PMID 9715844; conditions: cited from earlier work
HIV-1 [4] = test system: HIV-1; parameters: method as in PMID 8648207, PMID 9498441, PMID 9952363; conditions: after 12 weeks on monotherapy; cited from earlier work
human or mouse epithelia = test system: human or mouse epithelia; parameters: method as in PMID 24086341; conditions: concentrations that ablate yeast and HIV-infected cells; cited from earlier work
[5] = test system: productively infected macrophages; parameters: method as in PMID 7973634; conditions: cited from earlier work
[6] = clinically relevant concentrations

Cc1ccnc2c1NC(=O)c1cccnc1N2C1CC1 [nevirapine]
time to viral breakthrough during monotherapy (HIV-1 [1]): ≥ 4 days

CC(=O)N(O)CCCCCNC(=O)CCC(=O)N(O)CCCCCNC(=O)CCC(=O)N(O)CCCCCN [deferoxamine]
ablation of HIV-infected cells [2, 6]: does not ablate HIV-infected cells
antiretroviral activity in culture [2, 6]: does not display antiretroviral activity in culture
suppression of DOHH activity (DOHH): does not achieve maximal suppression of DOHH activity
dose-related antiretroviral effect in persons living with HIV-1 (HIV-1 [3]): does not display a dose-related antiretroviral effect

NC(Cn1ccc(=O)c(O)c1)C(=O)O (stereo not drawn) [mimosine]
ribosomal presence of gag mRNA, amount of intra- and extracellular p24, budding of viral particles ([2]; treated HIV-infected cells): suppress

Cc1cn([C@H]2C[C@H](N=[N+]=[N-])[C@@H](CO)O2)c(=O)[nH]c1=O [zidovudine]
viral load decline (HIV-1 [4]): -0.3 log10
time to viral breakthrough during monotherapy (HIV-1 [1]): ≥ 4 days

Cc1cc(C2CCCCC2)n(O)c(=O)c1 [ciclopirox, 6-cyclohexyl-1-hydroxy-4-methylpyridin-2[1H]-one]
off-drug re-emergence of HIV-1 RNA synthesis, compared with deferiprone ([2]; ciclopirox at 30 μM): gave similar results
antiretroviral activity of the paired 1,2-HOPO chelators [2]: antiretrovirally active
viral breakthrough during monotherapy ([2]; up to 5 weeks of monotherapy): neither allowed breakthrough
acute toxicity at human or mouse epithelia (human or mouse epithelia): does not cause acute toxicity

NC(=O)NO [hydroxyurea]
HIV-1 DNA [5]: depleted HIV-1 DNA
viral breakthrough [5]: blocked breakthrough during three weeks of treatment
viral rebound after cessation [5]: did not allow rebound after cessation
